Reference: ChEMBL document CHEMBL4831549, “The Marine Neurotoxin Brevetoxin (PbTx-2) Inhibits Karenia brevis and Mammalian Thioredoxin Reductases by Targeting Different Residues” (J Nat Prod, 2021)
The source made the active and inactive calls. No cut-off for these calls is given here.

Legend:
Karenia brevis [1] = test: Inhibition of Karenia brevis TrxR assessed as reduction in substrate reduction at 40 uM using DTNB as a substrate incubated for 60 mins in the presence of NADPH followed by substrate addition measured for 5 mins by absorbance based assay relative to control
Karenia brevis [2] = test: Inhibition of Karenia brevis TrxR assessed as reduction in substrate reduction at 10 to 100 uM using H2O2 as a substrate incubated for 60 mins in the presence of NADPH followed by substrate addition measured for 15 mins by absorbance based assay relative to control; details: dose 10-100 µM
Karenia brevis [3] = test: Inhibition of Karenia brevis TrxR assessed as reduction in substrate reduction at 40 uM using human Trx and insulin as a substrate incubated for 60 mins in the presence of NADPH followed by substrate addition measured for 5 mins by absorbance based assay relative to control
Karenia brevis [4] = test: Inhibition of Karenia brevis TrxR assessed as reduction in substrate reduction at 40 uM using GSSG as a substrate incubated for 60 mins in the presence of NADPH followed by substrate addition measured for 30 mins by absorbance based assay relative to control
Karenia brevis [5] = test: Inhibition of Karenia brevis TrxRD3 assessed as reduction in substrate reduction at 40 uM using DTNB as a substrate incubated for 60 mins in the presence of NADPH followed by substrate addition measured for 5 mins by absorbance based assay relative to control
[6] = Inhibition of Karenia brevis TrxR assessed as reduction in substrate reduction using H2O2 as a substrate incubated for 60 mins in the presence of NADPH followed by substrate addition measured for 15 mins by absorbance based assay
[7] = target: T1, Thioredoxin reductase 1, cytoplasmic (Rattus norvegicus) (UniProt O89049); test: Binding affinity to rat TrxR1 assessed as adduct formation at 7.2 uM by LC-MS/MS analysis
T1 sequence (whole entry): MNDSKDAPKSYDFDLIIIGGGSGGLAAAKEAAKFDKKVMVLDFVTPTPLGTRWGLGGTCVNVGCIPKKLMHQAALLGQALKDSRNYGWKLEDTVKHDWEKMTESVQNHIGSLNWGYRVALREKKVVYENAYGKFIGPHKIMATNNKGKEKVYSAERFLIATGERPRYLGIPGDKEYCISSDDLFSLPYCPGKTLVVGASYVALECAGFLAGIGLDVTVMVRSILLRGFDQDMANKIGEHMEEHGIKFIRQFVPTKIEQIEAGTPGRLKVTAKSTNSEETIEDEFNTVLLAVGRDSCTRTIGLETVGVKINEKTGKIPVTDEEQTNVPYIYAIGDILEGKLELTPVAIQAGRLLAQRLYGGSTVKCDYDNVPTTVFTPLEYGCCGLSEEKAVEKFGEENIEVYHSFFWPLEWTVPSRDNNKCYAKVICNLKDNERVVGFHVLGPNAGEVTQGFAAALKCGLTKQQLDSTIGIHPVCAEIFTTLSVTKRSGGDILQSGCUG

Karenia brevis [8] = test: Binding affinity Karenia brevis TrxR assessed as formation at 7.2 uM by LC-MS/MS analysis

`C=C(C=O)C[C@@H]1C[C@H](O)[C@]2(C)O[C@@H]3C[C@@H]4O[C@@H]5C[C@]6(C)O[C@]7(C)CC[C@@H]8O[C@@H]9C[C@]%10(C)O[C@@H]%11C(C)=CC(=O)O[C@H]%11C[C@H]%10O[C@H]9C[C@@H](C)[C@H]8O[C@H]7C[C@H]6O[C@@]5(C)C/C=C\[C@H]4O[C@H]3C[C@H]2O1` [BREVETOXIN B] gave an inhibition (Karenia brevis [1]) of 44.7%, an inhibition (Karenia brevis [2]) of 39.6% and an inhibition (Karenia brevis [3]) of 34%. The inhibition (Karenia brevis [4]) was 32.5%, the inhibition (Karenia brevis [5]) was 20.7% and the IC50 [6] was 56 µM. The Activity [7] was “Active” and the Activity (Karenia brevis [8]) was “Active”.
